The assay deals with carrageenin edema. Kind of assay: Carrageenin edema inhibition activity (for rats). It is filed as in vivo. The conditions noted are these: Rattus norvegicus, ip; for inhibition in vivo at 50 mg/kg: 50 mg/kg i.p.; for inhibition in vivo at 100 mg/kg: 100 mg/kg i.p. The text has this: In Table 2 below, carrageenin edema inhibition activity (for rats) of representative compounds of the present invention is illustrated: […]
A general note: The carrageenan paw model is a standard test of acute inflammation.

Compound `Nc1nc(NC(=O)c2cccnc2)nc(-c2ccc(Cl)cc2)n1` [Compound 1] gave an inhibition in vivo at 50 mg/kg of 56.8% and an inhibition in vivo at 100 mg/kg of 57.2%.

The compound `Nc1nc(NC(=O)c2cccnc2)nc(-c2cccc(Cl)c2)n1` [Compound 2] yielded an inhibition in vivo at 50 mg/kg of 43.6% and an inhibition in vivo at 100 mg/kg of 54.2%.

`Nc1nc(NC(=O)c2cccnc2)nc(-c2ccccc2Cl)n1` [Compound 3] displayed an inhibition in vivo at 50 mg/kg of 37.1% and an inhibition in vivo at 100 mg/kg of 45.5%.

With `Nc1nc(NC(=O)c2cccnc2)nc(-c2ccc(Br)cc2)n1` [Compound 4], at 50 mg/kg the inhibition in vivo was 44.4% and 100 mg/kg produced 49.3% inhibition in vivo.

The compound `Nc1nc(NC(=O)c2cccnc2)nc(-c2cccc(Br)c2)n1` [Compound 5] displayed an inhibition in vivo at 50 mg/kg of 41.9% and an inhibition in vivo at 100 mg/kg of 40.2%.

`Nc1nc(NC(=O)c2cccnc2)nc(-c2ccccc2I)n1` [Compound 9] registered an inhibition in vivo at 50 mg/kg of 38.1% and an inhibition in vivo at 100 mg/kg of 40.5%.

For `Nc1nc(NC(=O)c2cccnc2)nc(-c2ccc(F)cc2)n1` [Compound 10], the inhibition in vivo at 50 mg/kg amounted to 53.8% and 100 mg/kg produced 56.1% inhibition in vivo.

The compound `Nc1nc(NC(=O)c2cccnc2)nc(-c2cccc(F)c2)n1` [Compound 11] registered an inhibition in vivo at 50 mg/kg of 49% and an inhibition in vivo at 100 mg/kg of 47.1%.

The compound `Nc1nc(NC(=O)c2cccnc2)nc(-c2ccc(Cl)c(Cl)c2)n1` [Compound 13] returned an inhibition in vivo at 50 mg/kg of 40.9% and an inhibition in vivo at 100 mg/kg of 49.2%.

In turn, `Nc1nc(NC(=O)c2cccnc2)nc(-c2cc(Cl)ccc2Cl)n1` [Compound 15] gave an inhibition in vivo at 50 mg/kg of 43.2% and an inhibition in vivo at 100 mg/kg of 54.5%.

`Nc1nc(NC(=O)c2cccnc2)nc(-c2cc(Cl)ccc2F)n1` [Compound 19]: the inhibition in vivo at 50 mg/kg was found to be 34.2% and the inhibition in vivo at 100 mg/kg stood at 47.8%.

`Nc1nc(NC(=O)c2cccnc2)nc(-c2ccc(Cl)cc2F)n1` [Compound 20] displayed an inhibition in vivo at 50 mg/kg of 42.7% and an inhibition in vivo at 100 mg/kg of 50.8%.

`Nc1nc(NC(=O)c2cccnc2)nc(-c2cc(Br)ccc2Br)n1` [Compound 21] came in with an inhibition in vivo at 50 mg/kg of 35.6% and an inhibition in vivo at 100 mg/kg of 40.6%.

In turn, `Nc1nc(NC(=O)c2cccnc2)nc(-c2cc(F)ccc2Cl)n1` [Compound 24] yielded an inhibition in vivo at 50 mg/kg of 46.5% and an inhibition in vivo at 100 mg/kg of 45.1%.

With `Nc1nc(NC(=O)c2cccnc2)nc(-c2cc(F)ccc2Br)n1` [Compound 25], 50 mg/kg produced 40.7% inhibition in vivo and testing at 100 mg/kg gave an inhibition in vivo of 45.9%.

With `Nc1nc(NC(=O)c2cccnc2)nc(-c2cc(F)ccc2F)n1` [Compound 27], the inhibition in vivo at 50 mg/kg was determined as 51.2% and 100 mg/kg produced 53.6% inhibition in vivo.

Consider `Nc1nc(NC(=O)c2cccnc2)nc(-c2ccc(Cl)cc2Br)n1` [Compound 28], for which the inhibition in vivo at 50 mg/kg was 42.8% and the inhibition in vivo at 100 mg/kg amounted to 48.4%.

`Nc1nc(NC(=O)c2cccnc2)nc(-c2cc(Br)ccc2Cl)n1` [Compound 29] showed an inhibition in vivo at 50 mg/kg of 38.7% and an inhibition in vivo at 100 mg/kg of 49.2%.

Usually inhibition in vivo stands for the share of the control response that was lost under treatment. Low readings indicate a weak effect, high ones a strong effect.

Source of the values: patent US4333933A, “Benzoguanamine derivatives, their production and pharmaceutical compositions containing the same” (Nippon Shinyaku Co., Ltd., priority 1980, dated 1982).
